# Assay results published in ChEMBL document CHEMBL1153977, “Fluorinated non-imidazole histamine H3 receptor antagonists” (Bioorg Med Chem Lett, 2009).
# Assays:
# Histamine H3 receptor = Histamine H3 receptor (Homo sapiens, UniProt Q9Y5N1); assay: Displacement of [125I]iodoproxyfan from human histamine H3 receptor expressed in […] cells; type: cell-based, HEK293
# Mus musculus = assay: In vivo histamine H3 receptor potency in po dosed Swiss mouse assessed as N'-methylhistamine level; type: functional
# Sequence of Histamine H3 receptor (Q9Y5N1 whole entry): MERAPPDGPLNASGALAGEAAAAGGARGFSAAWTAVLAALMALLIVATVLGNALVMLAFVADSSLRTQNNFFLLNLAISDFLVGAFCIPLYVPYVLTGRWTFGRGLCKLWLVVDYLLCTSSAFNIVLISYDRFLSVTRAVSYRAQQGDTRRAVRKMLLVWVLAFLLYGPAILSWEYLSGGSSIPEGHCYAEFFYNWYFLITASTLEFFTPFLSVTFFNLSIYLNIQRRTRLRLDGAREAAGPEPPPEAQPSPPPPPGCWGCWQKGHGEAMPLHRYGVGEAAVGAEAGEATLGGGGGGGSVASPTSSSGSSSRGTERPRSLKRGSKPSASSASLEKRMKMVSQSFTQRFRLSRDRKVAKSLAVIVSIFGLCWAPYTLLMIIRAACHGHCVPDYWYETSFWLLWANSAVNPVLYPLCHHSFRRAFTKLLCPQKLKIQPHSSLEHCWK
Compound,Ki (Histamine H3 receptor) [nM],ED50 (Mus musculus) [mg/kg]
F[C@@H]1CCN(Cc2ccc(OCCCN3CCCC3)cc2)C1,0.31,–
FCc1ccc(OCCCN2CCCCC2)cc1,17.3,–
Clc1ccc(CCCOCCCN2CCCCC2)cc1 [PITOLISANT],–,1.5
FCCc1ccc(OCCCN2CCCCC2)cc1,43,–
N#Cc1ccc(OCCCN2CCC(F)(F)CC2)cc1,> 1000,–
F[C@@H]1CCN(Cc2ccc(OCCCN3CCCCC3)cc2)C1,0.28,–
c1cc(CN2CCCCC2)ccc1COc1ccc(CN2CCCCC2)cc1,–,9.6
CS(=O)(=O)OC1CCN(Cc2ccc(OCCCN3CCCCC3)cc2)CC1,0.84,–
FC1CCN(CCCOc2ccc(CN3CCCC3)cc2)CC1,0.99,–
N#Cc1ccc(OCCCN2CCCCC2)cc1,11,0.2
c1cc(OCCCN2CCCCC2)ccc1CN1CCCCC1 [JNJ-5207852],–,0.12

# More lines, main results first:
Ki (Histamine H3 receptor) [nM],Compound,ED50 (Mus musculus) [mg/kg]
0.28,F[C@H]1CCN(Cc2ccc(OCCCN3CCCCC3)cc2)C1,3.9
0.24,FC1(F)CCN(Cc2ccc(OCCCN3CCCCC3)cc2)CC1,0.4
0.068,ClC1CCN(Cc2ccc(OCCCN3CCCCC3)cc2)CC1,–
0.26,FC1CCN(Cc2ccc(OCCCN3CCCC3)cc2)CC1,12
0.094,FC1CCN(Cc2ccc(OCCCN3CCCCC3)cc2)CC1,7.4
0.2,BrC1CCN(Cc2ccc(OCCCN3CCCCC3)cc2)CC1,–
